Like-named read-outs stand apart in the source and are kept apart here.
What was measured:
[1] = molecular target: T1, LbDHODH (Leishmania braziliensis, UniProt E9AI53); assay: biochemical; details: for inhibition at 100 µM: read-out: enzyme inhibition
Procedure, shortened: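 Screened at 100 μM with and without 4-h enzyme preincubation; DCIP reduction during DHO oxidation read at 610 nm every 3 s for 60 s in 50 mM Tris pH 8.15, 150 mM KCl, 0.1% Triton X-100, triplicate, 5% DMSO control. kinact/KI taken as slope of kobs versus inhibitor concentration (initial linear region).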

[2] = molecular target: T1, LbDHODH; assay: Kinact/KI determination from LbDHODH progress curves (kobs vs inhibitor concentration); format: biochemical; details: for kinact/KI: slope of kobs vs inhibitor concentration
Text: The Kinact/Ki ratio is a key parameter for evaluating the potency of covalent inhibitors, as it quantitatively measures both their reactivity and affinity for the target enzyme. This parameter integrates two crucial aspects: KI, which reflects the inhibitor’s binding affinity, and Kinact, which describes the rate at which the covalent bond is formed. […] Therefore, this ratio is essential for ranking covalent inhibitors, optimizing their potency, and guiding structure-based drug design.
The experiments were performed in a 96-well microplate reader (SpectraMax Plus 384, Molecular Devices, USA), containing the […] of the buffer 60 mM DCIP, 50 mM Tris pH 8.15, 150 mM KCl, 0.1% Triton X-100, 50 μM DHO and 10 μM of LbDHODH at 165 nM. The reaction was monitored every 3 s at 610 nm over a period of 60 s, in triplicate, for the control and each concentration of the inhibitor. All assays were performed without incubation (0h) and with 4-h preincubation of the inhibitor with LbDHODH, using 5% DMSO (v/v) as control. […] To determine the IC50 values, the activity percentage data were fitted as a function of the concentration logarithm by nonlinear regression analysis (variable hillslope) using Prism 9.0 software (GraphPad Software, USA). […] The resulting kobs values were plotted as a function of inhibitor concentration, and the data in the initial linear region was fit to determine the slope, which is kinact/KI. All regressions were performed with GraphPad Prism 9.

[3] = tested on: THP-1 cells; assay: Cell viability / cytotoxicity assay (PrestoBlue, 72 h); format: cell-based; details: THP-1 cell line, 72 h, max 200 μM
Procedure, shortened: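 PMA-differentiated THP-1 cells (150 ng/mL PMA, 48 h; then 24 h in fresh medium) were exposed to compounds in serial dilution from 200 μM for 72 h at 37 °C, 5% CO2. Viability was read by PrestoBlue fluorescence (ex 560/em 590 nm) after 2 h.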

[4] = 0 h, pH 8.15, read-out: LbDHODH Activity±SD (%)
[5] = 4 h, pH 8.15, read-out: LbDHODH Activity±SD (%)
[6] = IC50 0 h, LbDHODH, without preincubation
[7] = IC50 4 h, LbDHODH, 4-h preincubation
[8] = read-out: Single dose (0h) % activity
[9] = read-out: Single dose (4h) % activity

T1 sequence (E9AI53 entry or part of it): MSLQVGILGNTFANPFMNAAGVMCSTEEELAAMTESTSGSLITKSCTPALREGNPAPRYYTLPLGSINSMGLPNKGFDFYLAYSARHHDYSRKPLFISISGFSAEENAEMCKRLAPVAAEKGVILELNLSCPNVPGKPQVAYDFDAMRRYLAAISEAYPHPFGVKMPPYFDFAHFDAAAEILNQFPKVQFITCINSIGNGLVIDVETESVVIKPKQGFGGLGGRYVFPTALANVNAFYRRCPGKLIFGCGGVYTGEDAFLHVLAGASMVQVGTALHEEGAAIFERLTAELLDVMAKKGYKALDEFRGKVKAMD

COc1cc(C=C2C(=O)NC(=O)NC2=O)ccc1O [2c, 5-(4-Hydroxy-3-methoxybenzylidene)pyrimidine-2,4,6(1H,3H,5H)-trione]
activity at 0.390625 µM [1, 4]: 96 ± 9%
activity at 0.78125 µM [1, 4]: 92 ± 9%
activity at 1.5625 µM [1, 4]: 82 ± 23%
activity at 3.125 µM [1, 4]: 77 ± 7%
activity at 6.25 µM [1, 4]: 46 ± 4%
activity at 12.5 µM [1, 4]: 36 ± 8%
activity at 25 µM [1, 4]: 22 ± 2%
activity at 50 µM [1, 4]: 13 ± 1%
activity at 100 µM [1, 4]: 7 ± 4%
activity at 200 µM [1, 4]: 5 ± 0.4%
activity at 400 µM [1, 4]: 6 ± 1%
activity at 0.390625 µM [1, 5]: 102 ± 10%
activity at 0.78125 µM [1, 5]: 97 ± 9%
activity at 1.5625 µM [1, 5]: 96 ± 12%
activity at 3.125 µM [1, 5]: 90 ± 6%
activity at 6.25 µM [1, 5]: 86 ± 7%
activity at 12.5 µM [1, 5]: 83 ± 8%
activity at 25 µM [1, 5]: 72 ± 5%
activity at 50 µM [1, 5]: 62 ± 8%
activity at 100 µM [1, 5]: 52 ± 6%
activity at 200 µM [1, 5]: 32 ± 2%
activity at 400 µM [1, 5]: 23 ± 3%
IC50 [1, 6]: 7 ± 1 µM
IC50 [1, 7]: 89 ± 4 µM
activity at 100 µM [1, 8]: 7 ± 3%
activity at 100 µM [1, 9]: 21 ± 5%

O=C1NC(=O)C(=Cc2ccc(O)c([N+](=O)[O-])c2)C(=O)N1 [2d, 5-(4-Hydroxy-3-nitrobenzylidene)pyrimidine-2,4,6(1H,3H,5H)-trione]
Kobs ([2]; inhibitor 0.18 µM): 0.003357 ± 0.002 s⁻¹
Kobs ([2]; inhibitor 0.390625 µM): 0.003416 ± 0.002 s⁻¹
Kobs ([2]; inhibitor 0.78125 µM): 0.003424 ± 0.002 s⁻¹
Kobs ([2]; inhibitor 1.5625 µM): 0.003613 ± 0.002 s⁻¹
Kobs ([2]; inhibitor 3.125 µM): 0.0038 ± 0.002 s⁻¹
Kobs ([2]; inhibitor 6.25 µM): 0.004522 ± 0.002 s⁻¹
Kobs ([2]; inhibitor 12.5 µM): 0.004748 ± 0.002 s⁻¹
Kobs ([2]; inhibitor 25 µM): 0.005571 ± 0.002 s⁻¹
Kobs ([2]; inhibitor 100 µM): 0.01122 ± 0.001 s⁻¹
Kobs ([2]; inhibitor 200 µM): 0.01796 ± 0.003 s⁻¹
kinact/KI [2]: 73 M⁻¹ s⁻¹
activity at 0.390625 µM [1, 4]: 99 ± 9%
activity at 0.78125 µM [1, 4]: 75 ± 6%
activity at 1.5625 µM [1, 4]: 60 ± 5%
activity at 3.125 µM [1, 4]: 46 ± 5%
activity at 6.25 µM [1, 4]: 25 ± 2%
activity at 12.5 µM [1, 4]: 13 ± 1%
activity at 25 µM [1, 4]: 11 ± 3%
activity at 50 µM [1, 4]: 8 ± 1%
activity at 100 µM [1, 4]: 6 ± 1%
activity at 200 µM [1, 4]: 9 ± 4%
activity at 400 µM [1, 4]: 6 ± 2%
activity at 0.390625 µM [1, 5]: 75 ± 7%
activity at 0.78125 µM [1, 5]: 76 ± 8%
activity at 1.5625 µM [1, 5]: 72 ± 11%
activity at 3.125 µM [1, 5]: 71 ± 6%
activity at 6.25 µM [1, 5]: 57 ± 7%
activity at 12.5 µM [1, 5]: 52 ± 6%
activity at 25 µM [1, 5]: 49 ± 7%
activity at 50 µM [1, 5]: 39 ± 7%
activity at 100 µM [1, 5]: 28 ± 3%
activity at 200 µM [1, 5]: 21 ± 8%
activity at 400 µM [1, 5]: 12 ± 4%
IC50 [1, 6]: 3 ± 1 µM
IC50 [1, 7]: 13 ± 2 µM
activity at 100 µM [1, 8]: 5 ± 2%
activity at 100 µM [1, 9]: 16 ± 3%

O=C1NC(=O)C(=Cc2ccc(N3CCOCC3)cc2[N+](=O)[O-])C(=O)N1 [2e, 5-(4-Morpholino-2-nitrobenzylidene)pyrimidine-2,4,6(1H,3H,5H)-trione]
activity at 0.048828 µM [1, 4]: 87 ± 1%
activity at 0.0976562 µM [1, 4]: 92 ± 1%
activity at 0.195312 µM [1, 4]: 94 ± 1%
activity at 0.390625 µM [1, 4]: 79 ± 3%
activity at 0.78125 µM [1, 4]: 83 ± 4%
activity at 1.5625 µM [1, 4]: 71 ± 2%
activity at 3.125 µM [1, 4]: 67 ± 4%
activity at 6.25 µM [1, 4]: 45 ± 3%
activity at 12.5 µM [1, 4]: 31 ± 4%
activity at 25 µM [1, 4]: 22 ± 1%
activity at 50 µM [1, 4]: 7 ± 5%
activity at 100 µM [1, 4]: 10 ± 1%
activity at 0.048828 µM [1, 5]: 104 ± 4%
activity at 0.0976562 µM [1, 5]: 107 ± 3%
activity at 0.195312 µM [1, 5]: 104 ± 3%
activity at 0.390625 µM [1, 5]: 106 ± 7%
activity at 0.78125 µM [1, 5]: 103 ± 1%
activity at 1.5625 µM [1, 5]: 85 ± 2%
activity at 3.125 µM [1, 5]: 87 ± 2%
activity at 6.25 µM [1, 5]: 87 ± 2%
activity at 12.5 µM [1, 5]: 60 ± 8%
activity at 25 µM [1, 5]: 67 ± 6%
activity at 50 µM [1, 5]: 35 ± 4%
activity at 100 µM [1, 5]: 13 ± 1%
IC50 [1, 6]: 5 ± 1 µM
IC50 [1, 7]: 28 ± 3 µM
activity at 100 µM [1, 8]: 10 ± 1%
activity at 100 µM [1, 9]: 7 ± 2%
inhibition at 100 µM [1]: 90 to 93%

O=C1NC(=O)C(=Cc2ccc(-c3ccccc3F)[nH]2)C(=O)N1 [2h, 5-((5-(2-Fluorophenyl)-1H-pyrrol-2-yl)methylene)pyrimidine-2,4,6(1H,3H,5H)-trione]
IC50 [1, 6]: > 100 µM
IC50 [1, 7]: > 100 µM
IC50 4 h ([1]; LbDHODH, 4-h preincubation): inactive
activity at 100 µM [1, 8]: 90 ± 10%
activity at 100 µM [1, 9]: 60 ± 10%

O=C1NC(=O)C(=C/C=C/c2ccccc2)C(=O)N1 [2i, (E)-5-(3-Phenylallylidene)pyrimidine-2,4,6(1H,3H,5H)-trione]
Kobs ([2]; inhibitor 0.0975 µM): 0.002849 ± 0.002 s⁻¹
Kobs ([2]; inhibitor 0.195 µM): 0.002994 ± 0.002 s⁻¹
Kobs ([2]; inhibitor 0.390625 µM): 0.003028 ± 0.002 s⁻¹
Kobs ([2]; inhibitor 0.78125 µM): 0.003309 ± 0.002 s⁻¹
Kobs ([2]; inhibitor 1.5625 µM): 0.003849 ± 0.002 s⁻¹
Kobs ([2]; inhibitor 3.125 µM): 0.005668 ± 0.003 s⁻¹
Kobs ([2]; inhibitor 6.25 µM): 0.007929 ± 0.002 s⁻¹
Kobs ([2]; inhibitor 12.5 µM): 0.02055 ± 0.002 s⁻¹
Kobs ([2]; inhibitor 25 µM): 0.0045 ± 0.002 s⁻¹
kinact/KI [2]: 767 M⁻¹ s⁻¹
CC50 [3]: no cytotoxicity
activity at 0.0976562 µM [1, 4]: 80 ± 11%
activity at 0.195312 µM [1, 4]: 83 ± 14%
activity at 0.390625 µM [1, 4]: 71 ± 17%
activity at 0.78125 µM [1, 4]: 72 ± 12%
activity at 1.5625 µM [1, 4]: 17 ± 4%
activity at 3.125 µM [1, 4]: 11 ± 3%
activity at 6.25 µM [1, 4]: 12 ± 3%
activity at 12.5 µM [1, 4]: 4 ± 1%
activity at 25 µM [1, 4]: 7 ± 3%
activity at 50 µM [1, 4]: 4 ± 1%
activity at 100 µM [1, 4]: 6 ± 1%
activity at 200 µM [1, 4]: 1 ± 0.1%
activity at 0.0976562 µM [1, 5]: 94 ± 19%
activity at 0.195312 µM [1, 5]: 68 ± 11%
activity at 0.390625 µM [1, 5]: 51 ± 9%
activity at 0.78125 µM [1, 5]: 38 ± 9%
activity at 3.125 µM [1, 5]: 10 ± 3%
activity at 12.5 µM [1, 5]: 4 ± 1%
activity at 50 µM [1, 5]: 16 ± 0.5%
activity at 200 µM [1, 5]: 3 ± 0.4%
IC50 [1, 6]: 0.9 ± 0.3 µM
IC50 [1, 7]: 0.5 ± 0.1 µM
activity at 100 µM [1, 8]: 1.1 ± 0.2%
activity at 100 µM [1, 9]: 3 ± 2%
inhibition at 100 µM [1]: 97%
